In article PMC12197678, “Cvill6 and Cvill7: Potent and Selective Peptide Blockers of Kv1.2 Ion Channel Isolated from Mexican Scorpion Centruroides villegasi” (Toxins, 2025):
Like-named read-outs stand apart in the source and are kept apart here. Positions of bridges follow the written chain, without caps; N, C: chain ends. Residues, ends and D or L forms follow the SMILES beside them.

Legend:
[1] = biological target: T1, hKv1.2 (Homo sapiens, UniProt P16389); test: Whole-cell patch-clamp, hKv1.2 current in transiently transfected CHO cells; format: cell-based; details: for inhibition at 0.001 µM / koff / kon: CHO; for inhibition at 0.001 µM: 1 nM; for koff: calculated from τoff; for koff / kon: 100 pM Cvill7 (n = 4) or 100 nM Cvill6 (n = 5); for kon: calculated from τon and τoff; for selectivity for Kv1.2 over Kv1.3: IC50 ratio; for τon (development of block) / τoff (wash-out): mean ± SEM; for Hill coefficient (H): Hill equation fit of RCF values; for mode of block: inferred from Hill coefficients close to 1 and single-exponential kinetics; for reversibility of Kv1.2 block: wash-out with toxin-free solution
T1 construct: host or cells: CHO cells, transient transfection (Lipofectamine 2000)
T1 sequence (P16389 whole entry): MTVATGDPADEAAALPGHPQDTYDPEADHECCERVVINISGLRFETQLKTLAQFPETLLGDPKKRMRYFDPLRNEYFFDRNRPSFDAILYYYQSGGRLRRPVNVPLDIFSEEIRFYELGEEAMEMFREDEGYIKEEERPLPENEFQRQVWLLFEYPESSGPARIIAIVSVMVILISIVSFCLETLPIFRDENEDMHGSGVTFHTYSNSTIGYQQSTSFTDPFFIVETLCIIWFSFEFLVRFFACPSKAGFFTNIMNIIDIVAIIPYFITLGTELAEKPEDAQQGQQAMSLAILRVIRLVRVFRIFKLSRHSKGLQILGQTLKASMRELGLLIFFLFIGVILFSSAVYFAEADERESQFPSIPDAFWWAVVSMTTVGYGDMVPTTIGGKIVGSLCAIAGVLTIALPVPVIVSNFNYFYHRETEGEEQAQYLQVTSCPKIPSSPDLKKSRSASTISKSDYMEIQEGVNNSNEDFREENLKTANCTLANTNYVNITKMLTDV
From the text: (§1) For current recordings, Kv1.1, Kv1.2, and Kv1.5 were transiently expressed in CHO cells while for Kv11.1 a stable HEK293 cell line was used. To record Kv1.3 currents human peripheral T lymphocytes were activated with Phytohemagglutinin A (PHA) to boost Kv1.3 expression and Ca^2+-free intracellular solution to prevent the KCa3.1 channel opening. […] Appropriate voltage protocols were applied to record the K^+ currents from voltage-clamped cells in whole-cell configurations. Toxins were freshly dissolved in the bath solution supplemented with 0.1 mg/mL BSA and applied to the patched cells via a gravity-fed micro-perfusion system with an approximate flow rate of 200 µL/min.
Chinese hamster ovary (CHO) cells (generously provided by Yosef Yarden, Weizmann Institute of Science, Rehovot, Israel) or human embryonic kidney (HEK293) cells were cultured and maintained in Dulbecco’s modified Eagle medium (DMEM, Thermo Fisher Scientific, Waltham, MA, USA) supplemented with 2 mM L-glutamine, 10% fetal bovine serum (FBS), 100 µg/mL streptomycin, and 100 U/mL penicillin-g (Sigma-Aldrich, Budapest, Hungary) following standard culturing conditions [52]. For transient expression of ion channels, CHO cells were transfected using the Lipofectamine 2000 kit (Invitrogen, Waltham, MA, USA) following the manufacturer’s instructions with plasmids encoding specific ion channels, including hKv1.1 (KCNA1 gene), hKv1.2 (KCNA2 gene), and hKv1.5 (KCNA5 gene) in a pCMV6-AC-GFP vector (OriGene Technologies), hKCa2.2 (KCNN2 gene) in a pCDN3 plasmid (for this transfection a GFP containing plasmid was co-transfected, courtesy of Bernard Attali, Tel Aviv University, Tel Aviv, Israel), and hKCa3.1 (KCNN4 gene) in a pEGFP-C1 vector (a kind gift by H. Wulff, University of California, Davis, CA, USA). […] Electrophysiological recordings were typically conducted 24 to 48 h after transfection.
Whole-cell currents were recorded using the patch-clamp technique in voltage-clamp mode, following standard protocols [73]. […] Micropipettes were made from GC150F-7.5 borosilicate capillaries (Harvard Apparatus Co., Holliston, MA, USA) using a Sutter P2000 laser puller with tip resistance generally ranging from 3–6 MΩ in the bath solution. Only recordings with a leak current at the holding potential (Vh) of <10% of the peak current at the test potential were included in the data analysis. All recordings were performed at room temperature (20–25 °C). Control and test solutions were perfused to the cells via a gravity-driven micro-perfusion system and AutoMate Perfusion Pencil Multi-Barrel Manifold Tip (AutoMate Scientific, Berkeley, CA, USA), with an approximate flow rate of 200 µL/min, and the excess amount of bath solution was continuously removed from the recording chamber using vacuum suction.
The duration of depolarization pulses was 15 ms for Kv1.3 and 50 ms for Kv1.1 and Kv1.5. However, for Kv1.2, 15–500 ms-long pulses were used to achieve the saturated peak current due to the variable activation kinetics of this channel [74].

[2] = test system: hKCa2.2 (SK2); test: Whole-cell patch-clamp, hKCa2.2 current in transfected CHO cells; format: cell-based, human; details: 100 nM; ~3 min
From the text: The scorpion toxins from the α-KTx 2 family also modulate the function of Ca^2+-activated potassium channels, in addition to Kv1 channels. Therefore, we investigated the activity of Cvill6 and Cvill7 toxins on three different types of Ca^2+-activated K^+ channels: (1) hKCa2.2 (SK2), the small-conductance Ca^2+-activated channel; (2) hKCa3.1 (IKCa1, SK4), the intermediate-conductance Ca^2+-activated channels, mainly expressed in T lymphocytes; and (3) mKCa1.1 (BK or MaxiK), the large-conductance voltage- and Ca^2+- activated channel of mice. […] The quantity of native toxins was insufficient to conduct the full dose–response curves at this high concentration range (see above).
Chinese hamster ovary (CHO) cells (generously provided by Yosef Yarden, Weizmann Institute of Science, Rehovot, Israel) or human embryonic kidney (HEK293) cells were cultured and maintained in Dulbecco’s modified Eagle medium (DMEM, Thermo Fisher Scientific, Waltham, MA, USA) supplemented with 2 mM L-glutamine, 10% fetal bovine serum (FBS), 100 µg/mL streptomycin, and 100 U/mL penicillin-g (Sigma-Aldrich, Budapest, Hungary) following standard culturing conditions. […] Cells expressing GFP were identified using a Nikon TE 2000U fluorescence microscope (Nikon, Tokyo, Japan) with bandpass filters set to 455–495 nm for excitation and 515–555 nm for emission. […]

[3] = test system: hKv1.5; format: cell-based, human; details: 100 nM; ~3 min
From the text: as §1
Chinese hamster ovary (CHO) cells (generously provided by Yosef Yarden, Weizmann Institute of Science, Rehovot, Israel) or human embryonic kidney (HEK293) cells were cultured and maintained in Dulbecco’s modified Eagle medium (DMEM, Thermo Fisher Scientific, Waltham, MA, USA) supplemented with 2 mM L-glutamine, 10% fetal bovine serum (FBS), 100 µg/mL streptomycin, and 100 U/mL penicillin-g (Sigma-Aldrich, Budapest, Hungary) following standard culturing conditions [52]. For transient expression of ion channels, CHO cells were transfected using the Lipofectamine 2000 kit (Invitrogen, Waltham, MA, USA) following the manufacturer’s instructions with plasmids encoding specific ion channels, including hKv1.1 (KCNA1 gene), hKv1.2 (KCNA2 gene), and hKv1.5 (KCNA5 gene) in a pCMV6-AC-GFP vector (OriGene Technologies), hKCa2.2 (KCNN2 gene) in a pCDN3 plasmid (for this transfection a GFP containing plasmid was co-transfected, courtesy of Bernard Attali, Tel Aviv University, Tel Aviv, Israel), and hKCa3.1 (KCNN4 gene) in a pEGFP-C1 vector (a kind gift by H. Wulff, University of California, Davis, CA, USA). […] Electrophysiological recordings were typically conducted 24 to 48 h after transfection. […]
Whole-cell currents were recorded using the patch-clamp technique in voltage-clamp mode, following standard protocols [73]. […]

[4] = biological target: T2, hKCa3.1 (IKCa1, SK4) (Homo sapiens, UniProt O15554); test: Whole-cell patch-clamp, hKCa3.1 current in transfected CHO cells; format: cell-based; details: for reversibility of KCa3.1 inhibition / time to steady-state block of KCa3.1 / reduction of KCa3.1 current / inhibition at 0.1 µM / remaining current fraction (RCF, I/I0): 100 nM; for reversibility of KCa3.1 inhibition: then toxin-free solution; for time to steady-state block of KCa3.1: 5–6 consecutive traces; for time to steady-state block of KCa3.1 / remaining current fraction (RCF, I/I0) / time to recovery from KCa3.1 block: n = 5; for reduction of KCa3.1 current: representative record; for inhibition at 0.1 µM / potency estimated from few doses: CHO; for inhibition at 0.1 µM: read-out: inhibition of KCa3.1 current; for potency estimated from few doses / remaining current fraction (RCF, I/I0): KCa3.1; for potency estimated from few doses: estimated from a single concentration (100 nM), bimolecular 1:1 interaction, read-out: estimated IC50; for remaining current fraction (RCF, I/I0): mean ± SEM; for time to recovery from KCa3.1 block: toxin-lacking solution after 100 nM
T2 construct: expressed in transfected cells; host or cells: CHO cells, transient transfection (Lipofectamine 2000); plasmid a gift of H. Wulff
T2 sequence (O15554 whole entry): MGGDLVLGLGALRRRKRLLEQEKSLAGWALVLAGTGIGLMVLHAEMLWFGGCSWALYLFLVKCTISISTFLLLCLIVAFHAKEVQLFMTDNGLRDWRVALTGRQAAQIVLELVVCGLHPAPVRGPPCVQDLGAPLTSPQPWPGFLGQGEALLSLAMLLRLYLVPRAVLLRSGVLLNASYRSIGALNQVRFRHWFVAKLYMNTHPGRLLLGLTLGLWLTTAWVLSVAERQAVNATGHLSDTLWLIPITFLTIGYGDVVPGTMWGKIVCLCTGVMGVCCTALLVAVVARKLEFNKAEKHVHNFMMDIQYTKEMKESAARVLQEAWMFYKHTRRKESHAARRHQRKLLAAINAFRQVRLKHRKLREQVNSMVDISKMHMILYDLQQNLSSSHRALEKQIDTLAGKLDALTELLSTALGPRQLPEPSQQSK
From the text: The scorpion toxins from the α-KTx 2 family also modulate the function of Ca^2+-activated potassium channels, in addition to Kv1 channels. Therefore, we investigated the activity of Cvill6 and Cvill7 toxins on three different types of Ca^2+-activated K^+ channels: (1) hKCa2.2 (SK2), the small-conductance Ca^2+-activated channel; (2) hKCa3.1 (IKCa1, SK4), the intermediate-conductance Ca^2+-activated channels, mainly expressed in T lymphocytes; and (3) mKCa1.1 (BK or MaxiK), the large-conductance voltage- and Ca^2+- activated channel of mice. Appropriate depolarization protocols were applied to record the K^+ current through respective KCa channels as shown in the inset of each panel in Figure 6A–C. […] Cvill6 reduced ~40% of the KCa3.1 current (Figure 6C), where the RCF value was 0.73 ± 0.05 (n = 5) at 100 nM (Figure 6D). On the other hand, Cvill7 inhibited ~25% of the current at the same concentration (Figure 6C), with an RCF value 0.84 ± 0.03 (n = 5) (Figure 6D). The time course of inhibition of KCa3.1 currents at 100 nM of Cvill6 or Cvill7 is shown in Figure 6E and Figure 6F, respectively. The normalized peak currents (see Section 2.4 or Section 5 for details) for individual cells (n = 5) were averaged at each time point and plotted as a function of time. […] The recovery from the block with Cvill6 to the initial peak current occurred in 4–5 consecutive traces (~0.8 min) and in the case of Cvill7 it took only 2–3 consecutive traces (~0.5 min) after perfusing the cell with toxin-lacking solution. […] The quantity of native toxins was insufficient to conduct the full dose–response curves at this high concentration range (see above).
Chinese hamster ovary (CHO) cells (generously provided by Yosef Yarden, Weizmann Institute of Science, Rehovot, Israel) or human embryonic kidney (HEK293) cells were cultured and maintained in Dulbecco’s modified Eagle medium (DMEM, Thermo Fisher Scientific, Waltham, MA, USA) supplemented with 2 mM L-glutamine, 10% fetal bovine serum (FBS), 100 µg/mL streptomycin, and 100 U/mL penicillin-g (Sigma-Aldrich, Budapest, Hungary) following standard culturing conditions. For transient expression of ion channels, CHO cells were transfected using the Lipofectamine 2000 kit (Invitrogen, Waltham, MA, USA) following the manufacturer’s instructions with plasmids encoding specific ion channels, including hKv1.1 (KCNA1 gene), hKv1.2 (KCNA2 gene), and hKv1.5 (KCNA5 gene) in a pCMV6-AC-GFP vector (OriGene Technologies), hKCa2.2 (KCNN2 gene) in a pCDN3 plasmid (for this transfection a GFP containing plasmid was co-transfected, courtesy of Bernard Attali, Tel Aviv University, Tel Aviv, Israel), and hKCa3.1 (KCNN4 gene) in a pEGFP-C1 vector (a kind gift by H. Wulff, University of California, Davis, CA, USA). Cells expressing GFP were identified using a Nikon TE 2000U fluorescence microscope (Nikon, Tokyo, Japan) with bandpass filters set to 455–495 nm for excitation and 515–555 nm for emission. Electrophysiological recordings were typically conducted 24 to 48 h after transfection.
The extracellular solution (bath solution) for both Kv and KCa channels consisted of 145 mM NaCl, 5 mM KCl, 2.5 mM CaCl2, 1 mM MgCl2, 10 mM HEPES, and 5.5 mM glucose, pH 7.35, and osmolarity between 302 and 308 mOsM/L. For positive control solutions containing various concentrations of tetraethylammoniums (TEA^+), Na^+ was substituted with TEA-Cl in equimolar concentration in the bath solution and all other ingredients remained unchanged. To avoid toxin adsorption onto the plastic surfaces of the perfusion system, 0.1 mg/mL of bovine serum albumin (BSA, Sigma-Aldrich, Budapest, Hungary) was also added into all bath solutions prior to the patch-clamp assay. […]

[5] = representative record, read-out: inhibition of hKv1.2 current

| SMILES | IC50 [1] [nM] | inhibition at 0.001 µM [1, 5] [%] | koff ([1]; Kv1.2) [s⁻¹] | kon ([1]; Kv1.2) [M⁻¹ s⁻¹] | selectivity for Kv1.2 over Kv1.3 [1] | Hill coefficient (H) ([1]; Kv1.2) | mode of block [1] | reversibility of Kv1.2 block [1] | effect on KCa2.2 current [2] | effect on hKv1.5 current [3] | reversibility of KCa3.1 inhibition [4] | time to steady-state block of KCa3.1 [4] | reduction of KCa3.1 current [4] | inhibition at 0.1 µM [4] [%] | potency estimated from few doses [4] [nM] | remaining current fraction (RCF, I/I0) [4] | time to recovery from KCa3.1 block [4] | further results |
| --- | --- | --- | --- | --- | --- | --- | --- | --- | --- | --- | --- | --- | --- | --- | --- | --- | --- | --- |
| CC[C@H](C)[C@H](N)C(=O)N[C@@H](Cc1ccccc1)C(=O)N[C@H](C(=O)N[C@@H](CC(N)=O)C(=O)N[C@H](C(=O)N[C@@H](CCCCN)C(=O)N[C@H]1CSSC[C@@H]2NC(=O)[C@H](CCCCN)NC(=O)CNC(=O)CNC(=O)[C@H](C)NC(=O)[C@H](Cc3c[nH]cn3)NC(=O)[C@H](CCC(N)=O)NC(=O)CNC(=O)[C@H](Cc3ccccc3)NC(=O)[C@H](CCCNC(=N)N)NC(=O)[C@H](CC(=O)O)NC(=O)[C@H](CCCCN)NC(=O)[C@@H]3CSSC[C@@H](C(=O)N[C@@H](Cc4ccc(O)cc4)C(=O)N4CCC[C@H]4C(=O)O)NC(=O)[C@H](CCCCN)NC(=O)[C@H](CSSC[C@H](NC(=O)[C@H](CCC(N)=O)NC(=O)[C@H](CCC(N)=O)NC(=O)[C@@H]4CCCN4C(=O)[C@H](CC(C)C)NC(=O)[C@H](CC(=O)O)NC1=O)C(=O)N[C@@H](CC(C)C)C(=O)N[C@@H](CCCNC(=N)N)C(=O)N1CCC[C@H]1C(=O)N3)NC(=O)[C@H](CCCCN)NC(=O)CNC(=O)[C@H](CC(N)=O)NC(=O)[C@H]([C@@H](C)CC)NC2=O)C(C)C)[C@@H](C)CC [Cvill6] (H-IFINVKCDLPQQCLRPCKDRFGQHAGGKCINGKCKCYP-OH; disulfide 7-29, 13-34, 17-36 (inferred); N-terminus and C-terminus assumed) | 3.9 ± 0.27 | ~28 | 0.00091 | 290000 | ~ 215 fold | 1.4 | pore blockers that interact with channels with 1:1 stoichiometry in a bimolecular interaction | reversible but with very slow dissociation kinetics | Neither Cvill6 nor Cvill7 showed any effect | no change in current amplitudes | inhibit the KCa3.1 channel reversibly with quick association and dissociation kinetics | ~ 1 min | ~ 40% | ~27 | ~268 | 0.73 ± 0.05 | ~ 0.8 min | steady-state block of Kv1.2 ([1]; 100 nM, n = 5): 97 ± 1.2%; inhibition at 0.001 µM ([1]; screening summary (Figure 3G), read-out: inhibition of hKv1.2 currents): ~16%; times less potency for Kv1.2 than Cvill7 ([1]; IC50 comparison): 244 times; τon (development of block) ([1]; Kv1.2, 100 nM, n = 5): 35 ± 2.7 s; τon, representative fit ([1]; Kv1.2, 100 nM, representative fit (Figure S5C)): 38.7 s; τoff (wash-out) ([1]; Kv1.2, after 100 nM, n = 5): 1287 ± 259 s; τoff, representative fit ([1]; Kv1.2, after 100 nM, representative fit (Figure S5C)): 776.4 s; Kd ([1]; Kv1.2, koff/kon ratio, 100 nM, read-out: dissociation constant (Kd), koff/kon): 3.3 nM; recovery of Kv1.2 current, up to % of initial current ([1]; toxin-free solution after 100 nM): up to 65%; affinity for KCa3.1 relative to Cvill7 ([4]; estimated IC50 comparison): two-fold higher affinity |
| CC[C@H](C)[C@H](NC(=O)[C@H](Cc1ccccc1)NC(=O)[C@@H](N)[C@@H](C)O)C(=O)N[C@@H](CC(N)=O)C(=O)N[C@H](C(=O)N[C@@H](CCCCN)C(=O)N[C@H]1CSSC[C@@H]2NC(=O)[C@H](CCCCN)NC(=O)CNC(=O)CNC(=O)[C@H](C)NC(=O)[C@H](Cc3c[nH]cn3)NC(=O)[C@@H]3CCCN3C(=O)CNC(=O)[C@H](Cc3ccc(O)cc3)NC(=O)[C@H](CC(C)C)NC(=O)[C@H](CC(=O)O)NC(=O)[C@H](CCCCN)NC(=O)[C@@H]3CSSC[C@@H](C(=O)N[C@@H](Cc4ccc(O)cc4)C(=O)N[C@@H](CC(N)=O)C(=O)N[C@@H](CC(N)=O)C(N)=O)NC(=O)[C@H](CCCCN)NC(=O)[C@H](CSSC[C@H](NC(=O)[C@H](CCC(N)=O)NC(=O)[C@H](CCCCN)NC(=O)[C@@H]4CCCN4C(=O)[C@H](CO)NC(=O)[C@H]([C@@H](C)O)NC1=O)C(=O)N[C@@H](CC(C)C)C(=O)N[C@@H](CCCCN)C(=O)N1CCC[C@H]1C(=O)N3)NC(=O)[C@H](CCCCN)NC(=O)CNC(=O)[C@H](CC(N)=O)NC(=O)[C@H](CCSC)NC2=O)C(C)C [Cvill7] (H-TFINVKCTSPKQCLKPCKDLYGPHAGGKCMNGKCKCYNN-NH2; disulfide 7-29, 13-34, 17-36; N-terminus and C-terminus assumed) | 0.016 ± 0.00156 | > 97 | 0.00017 | 1e+08 ± 1.5e+07 | ~ 450 fold | 1.03 | pore blockers that interact with channels with 1:1 stoichiometry in a bimolecular interaction | virtually irreversible inhibitor of Kv1.2 | Neither Cvill6 nor Cvill7 showed any effect | did not show any effect | inhibit the KCa3.1 channel reversibly with quick association and dissociation kinetics | ~ 1 min | ~ 25% | ~16 | ~527 | 0.84 ± 0.03 | ~ 0.5 min | time to apparent saturation of Kv1.2 block ([1]; 100 pM): 7 to 8 min; loss of Kv1.2 current at saturation ([1]; 100 pM, n = 4): 96 ± 1.4%; selectivity for Kv1.2 over KCa3.1 ([1]; KCa3.1 IC50 estimated from a single concentration): > 32,000 fold; selectivity for Kv1.2 over Kv1.1 ([1]; Kv1.1 IC50 estimated from a single concentration): ~ 12,000 fold; τon, representative fit ([1]; Kv1.2, 100 pM, representative fit (Figure S5A)): 75.3 s; τon (development of block) ([1]; Kv1.2, 100 pM, single-exponential fits cell-by-cell, n = 4): 104 ± 15 s; τoff (wash-out) ([1]; Kv1.2, after 100 pM, n = 4): 5978 ± 538 s; τoff, representative fit ([1]; Kv1.2, after 100 pM, representative fit (Figure S5A)): 7380 s; selectivity over several other ion channels ([1]; Kv1.2 vs several other ion channels): three orders of magnitude selectivity over several other ion channels; recovery of blocked Kv1.2 current ([1]; toxin-free solution for ~15 min after 100 pM): just one-fifth of the blocked current recovered |
